Laboratory results published in patent publication US6284914A, “Highly water-soluble metalloproteinase inhibitors” (Fuji Yakuhin Kogyo Kabushiki Kaisha, priority 1995, dated 2001).
Counter-ions that a name gives are not always drawn.

Experiments:
collagenase (MMP-1) = target: T1, collagenase (MMP-1) (Homo sapiens, UniProt P03956); assay: Assay for Collagenase Inhibitory Activity (MMP-1); type: biochemical; details: fluorescein-labeled bovine type I collagen substrate, 35° C., 2 hours, pH 7.5; read-out: Inhibitory activities for matrix metalloproeinases (MMPs), MMP-1, IC50 value
T1 construct: endogenous in cells; host or cells: human fibroblast
T1 sequence (P03956 100-469): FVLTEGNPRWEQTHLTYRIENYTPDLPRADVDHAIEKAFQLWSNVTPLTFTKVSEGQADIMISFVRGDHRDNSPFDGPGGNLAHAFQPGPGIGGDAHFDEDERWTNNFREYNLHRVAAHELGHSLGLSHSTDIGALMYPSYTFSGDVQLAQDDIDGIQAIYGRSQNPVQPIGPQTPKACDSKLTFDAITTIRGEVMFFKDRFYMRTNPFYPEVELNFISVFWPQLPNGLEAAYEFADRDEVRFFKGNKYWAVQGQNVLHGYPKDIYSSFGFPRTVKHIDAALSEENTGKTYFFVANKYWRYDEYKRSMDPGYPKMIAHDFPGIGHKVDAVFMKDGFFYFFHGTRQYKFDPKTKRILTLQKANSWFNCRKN
Protocol: (§1) Inhibitory activities of the compounds represented by the general formula (I) according to the invention for collagenase (metalloproteinase concerned with a tissue destruction) derived from human fibroblast were tested by the method of Y. Murawaki et al., [Journal of Hepatology, 18, p. 328-334 (1993)], and their inhibitory activities for stromelysin derived from human fibroblast were measured by the method of S. S. Twining et al., [Anal. Biochem., 143, p. 30 (1984)].
Inhibitory activities for collagenase (MMP-1) of the compounds of Examples and comparative compounds were measured by the method of Y. Murawaki et al., [Journal of Hepatology, 18, p. 328-334 (1993)]. The latent procollagenase was activated by incubating with mercury aminophenylacetate (2 mM) at 35° C. for 2 hours. The assay was done by using bovine type I collagen labeled with fluorescein as a substrate. The activated collagenase was added to the substrate solution (0.5 mg/ml) in Tris HCl buffer (50 mM, pH 7.5) containing sodium chloride (0.4 M) and calcium chloride (10 mM). The obtained solution was incubated at 35° C. for 2 hours. The enzyme digestion was stopped by the addition of o-phenanthroline (80 mM). The mixture was added with pig spleen elastase solution (25 μg/ml) in the above Tris HCl buffer, and incubated 37° C. for 10 min. The obtained solution was added with 70% ethanol and Tris HCl buffer (170 mM, pH 9.5) containing sodium chloride (0.61 M), whereby the indigested substrate was sedimented by centrifuging at 3000 g for 20 min. The supernatant was taken, and its intensity of fluorescence was determined by the excitation wavelength (495 nm) and the measured wavelength (520 nm), and the inhibitory activity was obtained. IC50 is a concentration of a compound assayed in the digesting enzyme, whereby the splitting of the substrate was decreased to 50% compared with that attained by the enzyme alone.

stromelysin (MMP-3) = target: T2, stromelysin (MMP-3) (Homo sapiens, UniProt P08254); assay: Assay for Stromelysin Inhibitory Activity (MMP-3); type: biochemical; details: fluorescein-labeled casein substrate, 37° C., 2 hours, pH 7.8; read-out: Inhibitory activities for matrix metalloproeinases (MMPs), MMP-3, IC50 value
T2 construct: endogenous in cells; host or cells: human fibroblast
T2 sequence (P08254 100-477): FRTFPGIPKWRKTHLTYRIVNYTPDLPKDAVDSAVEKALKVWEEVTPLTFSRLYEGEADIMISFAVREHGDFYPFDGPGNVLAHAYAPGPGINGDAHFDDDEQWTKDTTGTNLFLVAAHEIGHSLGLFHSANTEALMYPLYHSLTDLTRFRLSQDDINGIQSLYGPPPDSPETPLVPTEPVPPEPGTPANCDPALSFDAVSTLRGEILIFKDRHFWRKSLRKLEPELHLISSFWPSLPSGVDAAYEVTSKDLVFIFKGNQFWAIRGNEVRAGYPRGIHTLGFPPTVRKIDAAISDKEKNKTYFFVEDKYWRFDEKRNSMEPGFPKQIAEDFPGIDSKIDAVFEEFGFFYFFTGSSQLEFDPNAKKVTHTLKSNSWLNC
Protocol: as §1
Inhibitory activities for stromelysin (MMP-3) of the compounds of Examples and comparative compounds were measured by the method of S. S. Twining et al., [Anal. Biochem., 143, p. 30 (1984)]. The latent prostromelysin was incubated with human plasmin (20 μg/ml) for the activation at 37° C. for 2 hours, and then the incubate was added with diisopropyl fluorophosphate solution (2.8 mg/ml) to stop the reaction. The assay was done by using casein labeled with fluorescein as the substrate. The activated stromelysin was added to a substrate solution (1 mg/ml) in Tris HCl buffer (50 mM, pH 7.8) containing calcium chloride (10 mM). The obtained solution was incubated at37° C. for 2 hours. The enzyme digestion forthesubstrate was stopped by adding 5% trichloroacetic acid. The indigested substrate was sedimented by centrifuging at 3000 g for 20 min. The supernatant was taken and added with Tris HCl buffer (0.5 M, pH 8.5), whereby its intensity of fluorescence was determined by the excitation wavelength (495 nm) and the measured wavelength (520 nm), and the inhibitory activity was obtained. IC50 is a concentration of a compound assayed in the digesting enzyme, whereby the splitting of the substrate was decreased to 50% compared with that attained by the enzyme alone.

[1] = Measurement of Solubility in Water; type: physicochemical; details: distilled water, 20±5° C., 30 min., checked by eye; for solubility at 0.5 h: water
Protocol: A compound of Examples or a comparative compound was added to distilled water and shaken vigorously at 20±5° C. for 30 seconds at 5 min. interval. After 30 min., it was checked by watching with eye whether the compound was dissolved or not.

Row | Structure (SMILES) | IC50 (collagenase (MMP-1)) | IC50 (stromelysin (MMP-3)) | solubility at 0.5 h [1] | Solubility in water ([1]; Monosodium Salt)
1 | CC(C)C[C@@H](C(=O)N[C@@H](Cc1ccc(NC(=N)N)cc1)C(=O)Nc1ccccc1)C(CCCc1ccccc1)C(=O)NO (stereo partly drawn) [Example 19, N-[4-(N-Hydroxyamino)-2(R)-isobutyl-3(RS)-(3-phenyltrimethylene)succinyl]-L-4'-guanidophenylalanine-N-phenylamide Monoacetate] | 8 nM | 10 nM |  | 
2 | CNC(=O)[C@H](Cc1ccc(OC)cc1)NC(=O)[C@@H](CC(=O)NO)CC(C)C [Comparative Compound 1, N-[4-(N-Hydroxyamino)-2(R)-isobutylsuccinyl]-O-methyl-L-tyrosine-N-methylamide, reference compound] |  | 110 nM | < 1 mg/mL | 
3 | CNC(=O)[C@H](Cc1ccc(OS(=O)(=O)O)cc1)NC(=O)C(CC(=O)NO)CC(C)C (single isomer, unassigned) [Example 1 (Isomer A), N-[4-(N-Hydroxyamino)-2(R or S)-isobutylsuccinyl]-O-sulfo-L-tyrosine-N-methylamide, Monosodium Salt] |  |  | > 240 mg/mL | 
4 | CNC(=O)[C@H](Cc1ccc(C(=N)N)cc1)NC(=O)[C@H](CC(C)C)C(CCCc1ccccc1)C(=O)NO (single isomer, unassigned) [Example 17, N-[4-(N-Hydroxyamino)-2(R)-isobutyl-3(R or S)-(3-phenyltrimethylene)succinyl]-L-4'-amidinophenylalanine-N-methylamideMonoacetate] | 5 nM | 5 nM |  | 
5 | CNC(=O)[C@H](Cc1ccc(S(=O)(=O)O)cc1)NC(=O)[C@H](CC(C)C)C(CSc1cccs1)C(=O)NO (single isomer, unassigned) [Example 5 (Isomer A), N-[4-(N-Hydroxyamino)-2(R)-isobutyl-3(R or S)-(thienylthiomethylene)succinyl]-L-4'-sulfophenylalanine-N-methylamide, Monosodium Salt] | 8 nM | 8 nM | > 320 mg/mL | 
6 | CNC(=O)[C@H](Cc1ccc(S(=O)(=O)O)cc1)NC(=O)C(CC(=O)NO)CC(C)C (stereo partly drawn) [Example 2, N-[4-(N-Hydroxyamino)-2(RS)-isobutylsuccinyl]-L-4'-sulfophenylalanine-N-methylamide, Monosodium Salt] | 4.2 nM | 200 nM | > 250 mg/mL | 
7 | CNC(=O)[C@H](Cc1ccc(CNC(C)=N)cc1)NC(=O)[C@H](CC(C)C)C(CCCc1ccccc1)C(=O)NO (single isomer, unassigned) [Example 10, N-[4-(N-Hydroxyamino)-2(R)-isobutyl-3(R or S)-(3-phenyltrimethylene)succinyl]-L-4'-acetimidoyliminomethylenephenylalanine-N-methylamide Monoacetate] | 7 nM | 15 nM |  | 
8 | CNC(=O)[C@H](Cc1ccc(CNC(=N)c2ccccc2)cc1)NC(=O)[C@H](CC(C)C)C(CCCc1ccccc1)C(=O)NO (stereo partly drawn) [Example 12, N-[4-(N-Hydroxyamino)-2(R)-isobutyl-3(RS)-(3-phenyltrimethylene)succinyl]-L-4'-benzimidoyliminomethylenephenylalanine-N-methylamide Monoacetate] | 10 nM | 10 nM |  | 
9 | CNC(=O)[C@H](Cc1ccc(CNC(C)=O)cc1)NC(=O)[C@H](CC(C)C)C(CCCc1ccccc1)C(=O)NO (stereo partly drawn) [Example 13, N-[4-(N-Hydroxyamino)-2(R)-isobutyl-3(RS)-(3-phenyltrimethylene)succinyl]-L-4'-acetamidomethylenephenylalanine-N-methylamide] | 4 nM | 10 nM |  | 
10 | CNC(=O)[C@H](Cc1ccc(O)cc1)NC(=O)[C@H](CC(C)C)[C@H](CCCc1ccccc1)C(=O)NO [Comparative Compound 2, N-[4-(N-Hydroxyamino)-2(R)-isobutyl-3(S)-phenyltrimethylenesuccinyl]-L-tyrosine-N-methylamide, reference compound] | 0.15 nM | 8 nM | < 1 mg/mL | 
11 | CNC(=O)[C@H](Cc1ccc(S(=O)(=O)O)cc1)NC(=O)[C@H](CC(C)C)C(CSc1cccs1)C(=O)NO (single isomer, unassigned) [Example 5 (Isomer B), N-[4-(N-Hydroxyamino)-2(R)-isobutyl-3(R or S)-(thienylthiomethylene)succinyl]-L-4'-sulfophenylalanine-N-methylamide, Monosodium Salt] |  |  |  | > 300 mg/mL
12 | CNC(=O)[C@H](Cc1ccc(OS(=O)(=O)O)cc1)NC(=O)[C@H](CC(C)C)C(CCCc1ccccc1)C(=O)NO (single isomer, unassigned) [Example 3 (Isomer A), N-[4-(N-Hydroxyamino)-2(R)-isobutyl-3(R or S)-(3-phenyltrimethylene)succinyl]-O-sulfo-L-tyrosine-N-methylamide, Monosodium Salt] |  |  | > 100 mg/mL | 
13 | CNC(=O)[C@H](Cc1ccccc1)NC(=O)[C@H](CC(C)C)[C@H](CSc1cccs1)C(=O)NO [Comparative Compound 3, N-[4-(N-Hydroxyamino)-2(R)-isobutyl-3(S)-thienyltiomethylenesuccinyl]-L-phenylalanine-N-methylamide, reference compound] |  |  | < 1 mg/mL | 
14 | COc1ccc(NC(=O)[C@H](Cc2ccc(OS(=O)(=O)O)cc2)NC(=O)[C@H](CC(C)C)C(CCCc2ccccc2)C(=O)NO)cc1 (stereo partly drawn) [Example 7, N-[4-(N-Hydroxyamino)-2(R)-isobutyl-3(RS)-(3-phenyltrimethylene)succinyl]-O-sulfo-L-tyrosine-N-p-methoxyphenylamide, Monosodium Salt] | 8 nM | 10 nM | 100 mg/mL | 
15 | CC(C)C[C@@H](C(=O)N[C@@H](Cc1ccc(OS(=O)(=O)O)cc1)C(=O)Nc1cccc2ccccc12)C(CCCc1ccccc1)C(=O)NO (stereo partly drawn) [Example 18, N-[4-(N-Hydroxyamino)-2(R)-isobutyl-3(RS)-(3-phenyltrimethylene)succinyl]-O-sulfo-L-tyrosine-N-1-naphthylamide, Monosodium Salt] | 500 nM | 6 nM |  | 
16 | CNC(=O)[C@H](Cc1ccc(CNC(=N)N)cc1)NC(=O)[C@H](CC(C)C)C(CCCc1ccccc1)C(=O)NO (stereo partly drawn) [Example 14, N-[4-(N-Hydroxyamino)-2(R)-isobutyl-3(RS)-(3-phenyltrimethylene)succinyl]-L-4'-guanidomethylenephenylalanine-N-methylamide Monoacetate] | 4 nM | 10 nM |  | 
17 | CNC(=O)[C@H](Cc1ccc(OS(=O)(=O)O)cc1)NC(=O)C(CC(=O)NO)CC(C)C (single isomer, unassigned) [Example 1 (Isomer B), N-[4-(N-Hydroxyamino)-2(R or S)-isobutylsuccinyl]-O-sulfo-L-tyrosine-N-methylamide, Monosodium Salt] | 5.1 nM | 500 nM |  | 
